Assay results taken from US4983596A, “3-pyrrolidinylthio-1-azabicyclo[3.2.0]-hept-2-ene-2-carboxylic acid derivatives and their preparation” (Fujisawa Pharmaceutical Company, Ltd., priority 1988, dated 1991).
≈ marks a conversion by molar mass, not a printed value.

Tested on: P. aeruginosa 26
Experiment: in vitro Antimicrobial Activity, two-fold agar-plate dilution method (MIC)
Assay type: cell-based
Conditions: Pseudomonas aeruginosa; Test strain P. aeruginosa 26; heart infusion agar; 10^6 viable cells per ml; incubation at 37° C. for 20 hours; read-out: MIC (minimal inhibitory concentration)
Protocol: in vitro Antimicrobial Activity
in vitro Antimicrobial Activity was determined by the two-fold agar-plate dilution method as described blow. […]
The product of Example (2-1).

MIC: 0.39 µg/mL (≈ 1 µM)
SMILES: C[C@@H](O)[C@H]1C(=O)N2C(C(=O)O)=C(S[C@@H]3CN[C@H](COCCF)C3)[C@H](C)[C@H]12 [Example (2-1), (4R,5S,6S)-3-[(2S,4S)-2-(2-fluoroethyloxymethyl)pyrrolidin-4-yl]thio-6-[(1R)-1-hydroxyethyl]-4-methyl-7-oxo-1-azabicyclo[3.2.0]hept-2-ene-2-carboxylic acid]
